The text below walks through data of ChEMBL document CHEMBL1152021, “(E) and (Z)-3-Styrylpiperidines as sigma ligands” (Bioorg Med Chem Lett, 1997).

Usually IC50 stands for the concentration that inhibits the measured activity by half. A low value points to greater potency in that assay.

Test [1] has as its target Sigma non-opioid intracellular receptor 1 (Rattus norvegicus, UniProt Q9R0C9). The test can be described thus: Binding affinity at sigma receptor by [3H](+)-SKF-10047 displacement.
The target of a further test is D(1A) dopamine receptor (Rattus norvegicus, UniProt P18901). The test can be described thus: Binding affinity at dopamine D1 receptor in rat striatum by [3H][…] displacement. The format is tissue-based.
Chain of D(1A) dopamine receptor (P18901 whole entry): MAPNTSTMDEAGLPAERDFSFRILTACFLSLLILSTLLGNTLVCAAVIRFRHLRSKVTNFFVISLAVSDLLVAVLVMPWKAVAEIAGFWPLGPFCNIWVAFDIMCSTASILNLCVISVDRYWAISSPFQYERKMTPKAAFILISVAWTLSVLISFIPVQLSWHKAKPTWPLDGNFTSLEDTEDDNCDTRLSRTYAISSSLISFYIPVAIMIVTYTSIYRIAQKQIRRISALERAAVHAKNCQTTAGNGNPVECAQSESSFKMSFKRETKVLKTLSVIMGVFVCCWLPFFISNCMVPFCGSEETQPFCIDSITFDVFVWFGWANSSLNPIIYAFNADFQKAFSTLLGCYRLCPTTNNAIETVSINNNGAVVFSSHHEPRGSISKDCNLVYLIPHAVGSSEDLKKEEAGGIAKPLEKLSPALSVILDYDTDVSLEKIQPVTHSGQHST
For another test, the target named is D(2) dopamine receptor (Rattus norvegicus, UniProt P61169). The test can be described thus: Binding affinity at dopamine D2 receptor in rat striatum by [3H]spiperone displacement. The format is tissue-based.
Chain of D(2) dopamine receptor (P61169 whole entry): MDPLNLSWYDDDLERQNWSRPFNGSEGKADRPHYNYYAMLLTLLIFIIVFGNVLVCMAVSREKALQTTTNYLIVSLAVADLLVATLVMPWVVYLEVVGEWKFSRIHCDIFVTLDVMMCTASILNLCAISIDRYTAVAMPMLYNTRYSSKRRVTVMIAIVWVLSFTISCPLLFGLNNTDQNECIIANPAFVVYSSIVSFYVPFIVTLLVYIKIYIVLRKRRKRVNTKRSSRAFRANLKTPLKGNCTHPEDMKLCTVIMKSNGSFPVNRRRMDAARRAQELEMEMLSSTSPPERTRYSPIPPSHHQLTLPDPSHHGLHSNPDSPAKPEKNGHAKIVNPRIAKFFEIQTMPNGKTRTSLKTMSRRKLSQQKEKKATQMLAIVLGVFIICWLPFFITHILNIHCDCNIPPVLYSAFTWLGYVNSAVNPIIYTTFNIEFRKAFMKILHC

Chain of Sigma non-opioid intracellular receptor 1 (Q9R0C9 whole entry): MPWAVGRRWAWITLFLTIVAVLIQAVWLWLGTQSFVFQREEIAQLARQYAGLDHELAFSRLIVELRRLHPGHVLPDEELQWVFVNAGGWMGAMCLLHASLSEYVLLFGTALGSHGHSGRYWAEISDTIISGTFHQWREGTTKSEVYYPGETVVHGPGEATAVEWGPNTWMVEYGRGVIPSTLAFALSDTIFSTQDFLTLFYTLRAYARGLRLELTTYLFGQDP

With `O=C1c2ccccc2S(=O)(=O)N1CCCCN1CCCC(/C=C/c2ccccc2)C1` (stereo not drawn), in test [1], the 50% inhibitory concentration (IC50) amounted to 23 nM. That is a double-digit nanomolar value.
As for `C(=C\C1CCCN(CCc2ccccc2)C1)/c1ccccc1` (stereo not drawn), the IC50 on D(1A) dopamine receptor is over 10000 nM; on D(2) dopamine receptor, 2400 nM; in test [1] it was 6 nM.
With `O=C(CCCN1CCCC(/C=C\c2ccccc2)C1)c1ccccc1` (stereo not drawn), in test [1], the IC50 worked out at 15 nM.
Turning to `O=C(CN1CCCC(/C=C\c2ccccc2)C1)Nc1ccccc1` (stereo not drawn), the IC50 in test [1] came out at 640 nM.
Turning to `C(=C\C1CCCN(C2CCCCC2)C1)/c1ccccc1` (stereo not drawn), the IC50 at D(1A) dopamine receptor was over 10000 nM; at D(2) dopamine receptor it was 5120 nM; in test [1] it was 6 nM.
Regarding `C(=C/C1CCCN(CCc2ccccc2)C1)/c1ccccc1` (stereo not drawn), the IC50 at D(1A) dopamine receptor was 630 nM; on D(2) dopamine receptor it was 120 nM; in test [1], 0.8 nM.
In test [1], `C(=C\C1CCCN(CCCOc2ccccc2)C1)/c1ccccc1` (stereo not drawn) yielded a half-inhibitory concentration (IC50) of 33 nM. This lies in the double-digit nanomolar range.
Take `C(=C\C1CCCN(CCCc2ccccc2)C1)/c1ccccc1` (stereo not drawn): the IC50 at D(1A) dopamine receptor came out at 1550 nM; at D(2) dopamine receptor, 1240 nM; in test [1], 4 nM.
Consider `C(=C/C1CCCN(CCCSc2nc3ccccc3s2)C1)/c1ccccc1` (stereo not drawn), for which the IC50 in test [1] is 27 nM. That is a double-digit nanomolar value.
Turning to `C(=C/C1CCCNC1)/c1ccccc1` (stereo not drawn), the IC50 was over 10000 nM at D(1A) dopamine receptor, 870 nM at D(2) dopamine receptor and 64 nM in test [1].
`CC(C)=CCN1CCCC(/C=C/c2ccccc2)C1` (stereo not drawn): the 50% inhibitory concentration (IC50) came to 1330 nM at D(1A) dopamine receptor, 180 nM on D(2) dopamine receptor and 38 nM in test [1].
`C=CCCCN1CCCC(/C=C/c2ccccc2)C1` (stereo not drawn): the IC50 in test [1] came to 12 nM.
The same measure, in the same setting: in the case of `O=C(NCCCCN1CCCC(/C=C\c2ccccc2)C1)C12C[C@H]3C[C@@H](C1)C[C@@H](C2)C3` (stereo partly drawn) it was 23 nM.
Take `C(=C/C1CCCN(CCCc2ccccc2)C1)/c1ccccc1` (stereo not drawn): the 50% inhibitory concentration (IC50) on D(1A) dopamine receptor is 2200 nM; on D(2) dopamine receptor it was 150 nM; in test [1] it was 0.6 nM.
In test [1], `C(=C/C1CCCN(CCCOc2ccccc2)C1)/c1ccccc1` (stereo not drawn) gave an IC50 of 15 nM.
`C=CCN1CCCC(/C=C/c2ccccc2)C1` (stereo not drawn): the figures for the half-maximal inhibitory concentration (IC50) (on D(1A) dopamine receptor; on D(2) dopamine receptor; in test [1]) were over 10000 nM, over 10000 nM and 4 nM, respectively.
Consider `C(=C/C1CCCN(C2CCCCC2)C1)/c1ccccc1` (stereo not drawn), for which the IC50 on D(1A) dopamine receptor was over 10000 nM; at D(2) dopamine receptor, 1120 nM; in test [1], 2 nM.
As to `C(=C/C1CCCN(CCC2CCCCC2)C1)/c1ccccc1` (stereo not drawn), the concentration for half-maximal inhibition (IC50) on D(1A) dopamine receptor is over 10000 nM; at D(2) dopamine receptor, 5440 nM; in test [1], 7 nM.
The matching figures for `C(=C/C1CCCN(CCCCc2ccccc2)C1)/c1ccccc1` (stereo not drawn): 5840 nM, 1440 nM and 7 nM.
Take `C(=C\C1CCCN(Cc2ccccc2)C1)/c1ccccc1` (stereo not drawn): in test [1], the half-inhibitory concentration (IC50) worked out at 10 nM.
For `CC(C)=CCN1CCCC(/C=C\c2ccccc2)C1` (stereo not drawn), the IC50 on D(1A) dopamine receptor worked out at 320 nM; at D(2) dopamine receptor, 160 nM; in test [1], 1 nM.
`C(=C\C1CCCNC1)/c1ccccc1` (stereo not drawn): the results for the IC50 (at D(1A) dopamine receptor; on D(2) dopamine receptor; in test [1]) were over 10000 nM, over 10000 nM and 423 nM, respectively.
